Experimental data reported in patent US5484778A, “Phthalocyanine photosensitizers for photodynamic therapy and methods for their use” (priority 1993, dated 1996).
“Also recorded” adds a separate entry of the source.

How the values were obtained:
[1] = tested on: chemically-induced benign skin papillomas; experiment: PDT of chemically induced skin tumors in SENCAR mice (FIG. 4); format: in vivo; conditions: 0.5 and 1.0 mg/kg i.p. in DPPC liposomes
Method: 6-week-old female SENCAR mice received a single topical application of 5 μg DMBA in 0.2 ml acetone on the dorsal skin as tumor initiator. One week later, the animals were started on twice-weekly topical applications of 1 μg TPA in 0.2 ml acetone as tumor promoter. All of the animals developed tumors at 12 weeks. Mice that developed 4-5 tumors per animal averaging 5-8 mm in diameter and 2-5 mm in thickness were used. Pc IV, entrapped in DPPC liposomes was administered intraperitoneally at doses of either 0.5 or 1.0 mg/kg and 24 hrs later the tumor area was illuminated with light from an argon pumped dye laser tuned at 675 nm for a total light dose of 135 J/cm^2 (75 mW/cm^2). All possible controls were included; either the animals were untreated, treated only with laser light or treated only with Pc IV alone.

[2] = tested on: Chinese hamster V79-379 cells; experiment: Clonogenic cell survival / photocytotoxicity in V79 cells (Table 1, FIG. 1, FIG. 2); format: cell-based; conditions: for CF10 (AlPcCl)/CF10 (Pc) / F10 (AlPcCl)/F10 (Pc): 18 h; for photosensitizing efficiency / photocytotoxicity (in words): V79 cells, red light
Method in brief: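 V79-379 Chinese hamster lung fibroblasts were loaded with phthalocyanine (0.5-1.0 μM final) for 18 hours, then irradiated in HBSS with >600 nm red light at approximately 0.074 kJ/m^2/s. Survival was scored by colony formation (≥50 cells, 7-10 days), giving F10 and the uptake-adjusted CF10 (intracellular concentration × fluence) relative to 1 μM AlPcCl.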

[3] = tested on: Chinese hamster V79-379 cells; experiment: Uptake of phthalocyanines by V79 cells relative to AlPcCl (Table 1); format: cell-based; conditions: for Uptake, efficiency relative to 1 μM AlPcCl: 18 h
Method: Chinese hamster V79-379 lung fibroblasts were grown in monolayer culture in McCoy's 5A medium (Gibco Laboratories, Grand Island, N.Y.) augmented with 10% calf serum and buffered with 20 mM HEPES (pH 7.4).
Total uptake was determined by scraping the phthalocyanine-treated monolayer, collecting the cells on a glass-fiber filter, and extracting the phthalocyanine in ethanol, as previously described by Ramakrishnan, et al., 1989. (Ramakrishnan, N., M. E. Clay, M. F. Horng, A. R. Antunez, & H. H. Evans, "DNA Lesions and DNA Degradation in Mouse Lymphoma L5178Y Cells After Photodynamic Treatment Sensitized by Chloroaluminum Phthalocyanine",Photochem. Photobiol, in press, 1989). The amount of drug was determined by absorption at 674 nm and expressed relative to the number of cells, as measured in a Coulter cell counter on an aliquot of the cell population. Controls included cells not treated with drug, medium alone, and drug-containing medium without cells. The results of the total uptake of the various compositions of the present invention in comparison to AlPcCl are set forth below in Table 1.
The cells were treated with 1 μM AlPcCl (from Eastman Kodak, Rochester, N.Y.) or with phthalocyanine compositions I-VI (0.5-1.0 μM final concentration in the medium) for 18 hours by adding the appropriate volume of a 1.0 mM stock solution in dimethylformamide (DMF) to the culture medium. The growth medium was replaced with 4 ml Hank's balanced salt solution (HBSS), and the cells were irradiated. The light source was a 500 W tungsten-halogen lamp located approximately 29 inches below the surface of a glass exposure tray. The visible light administered to the cells was filtered to allow passage of only that portion of the visible spectrum above 600 nm (Lee Primary red filter No. 106, Vincent Lighting, Cleveland, Ohio). The fluence rate was approximately 0.074 kJ/m^2 /s at the level of the cell monolayer.
All of the compounds have been examined for the extent of cellular uptake after exposure of V79 cells to 1 μM or less in complete medium, and the data of Table 1 are presented relative to the uptake from 1 μM AlPcCl, which was 0.723±0.172 nmole/10^7 cells (mean ±S. D., 25 determinations). […] In particular, when the concentration of Compound IV was 1 μM in the medium, the uptake into the cells was sufficiently high that some of the uptake and phototoxicity studies were repeated at 0.5 μM.

Compound: CN(C)CCC[Si](C)(C)O[Si]1(O)n2c3c4ccccc4c2N=C2N=C(N=c4c5ccccc5c(n41)=NC1=NC(=N3)c3ccccc31)c1ccccc12 (centres unmarked) [Compound IV, HOSiPcOsi(CH3)2)(CH2)3 N(CH3)2]
- tumor volume (eventual) ([1]; 675 nm, 135 J/cm^2): 0
- tumor recurrence ([1]; 34 days): did not return for the length of the study, 34 days
- CF10 (AlPcCl)/CF10 (Pc) ([2]; 0.5 μM): 3.9
- F10 (AlPcCl)/F10 (Pc) ([2]; 0.5 μM): 1.85
- CF10 (AlPcCl)/CF10 (Pc) ([2]; 1.0 μM, CF10 = intracellular concentration x fluence reducing survival to 10%): 3.5
- F10 (AlPcCl)/F10 (Pc) ([2]; 1.0 μM, F10 = fluence reducing survival to 10%): 4.25
- photosensitizing efficiency / photocytotoxicity (in words) [2]: almost twice as efficient as the standard AlPcCl; also recorded: most efficient photosensitizer
- photosensitizing efficiency / photocytotoxicity (in words) ([2]; listed as SiPc(OH)(OSi(CH3)2 (CH2)3 N(CH3)2)): most efficient photosensitizer, as judged by uptake, growth delay, and photocytotoxicity
- Uptake, efficiency relative to 1 μM AlPcCl ([3]; 0.5 μM): 1.3
- Uptake, efficiency relative to 1 μM AlPcCl ([3]; 1.0 μM): 1.64
- cellular uptake (in words) ([3]; V79 cells, 1 μM or less, compared with AlPcCl): taken up into the cells more efficiently than was AlPcCl
